Test [1] deals with T1, cAMP-dependent protein kinase catalytic subunit alpha (Homo sapiens, UniProt P17612). Briefly: Binding affinity to PKA catalytic subunit alpha by fluorescence polarization assay. For orientation: Fluorescence polarisation rises when a labelled molecule tumbles more slowly, as on binding a larger partner.
The target of test [2] is RAC-gamma serine/threonine-protein kinase (Homo sapiens, UniProt Q9Y243). Briefly: Inhibition of PKBgamma using 100 uM ATP and 30 uM TAMRA-kemptide substrate by fluorometric TLC assay.
RAC-gamma serine/threonine-protein kinase, sequence (Q9Y243 whole entry): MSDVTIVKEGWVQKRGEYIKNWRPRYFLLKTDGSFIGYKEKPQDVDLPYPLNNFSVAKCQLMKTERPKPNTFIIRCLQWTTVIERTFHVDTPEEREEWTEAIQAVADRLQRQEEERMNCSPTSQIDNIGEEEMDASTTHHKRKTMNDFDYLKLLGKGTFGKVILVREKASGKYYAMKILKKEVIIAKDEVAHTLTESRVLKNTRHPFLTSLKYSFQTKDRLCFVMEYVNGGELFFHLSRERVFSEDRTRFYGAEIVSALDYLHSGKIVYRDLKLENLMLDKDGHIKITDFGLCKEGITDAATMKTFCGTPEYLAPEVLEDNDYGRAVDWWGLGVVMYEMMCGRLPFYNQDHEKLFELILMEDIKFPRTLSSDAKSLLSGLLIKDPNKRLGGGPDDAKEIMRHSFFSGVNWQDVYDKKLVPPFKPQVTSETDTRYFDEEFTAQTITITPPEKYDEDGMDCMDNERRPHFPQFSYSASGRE
In test [3] the target is Rho-associated protein kinase 2 (Bos taurus) (UniProt Q28021). In words: Binding affinity to ROCK2 by fluorescence polarization assay.
Rho-associated protein kinase 2 (Bos taurus), sequence (Q28021 whole entry, looked up): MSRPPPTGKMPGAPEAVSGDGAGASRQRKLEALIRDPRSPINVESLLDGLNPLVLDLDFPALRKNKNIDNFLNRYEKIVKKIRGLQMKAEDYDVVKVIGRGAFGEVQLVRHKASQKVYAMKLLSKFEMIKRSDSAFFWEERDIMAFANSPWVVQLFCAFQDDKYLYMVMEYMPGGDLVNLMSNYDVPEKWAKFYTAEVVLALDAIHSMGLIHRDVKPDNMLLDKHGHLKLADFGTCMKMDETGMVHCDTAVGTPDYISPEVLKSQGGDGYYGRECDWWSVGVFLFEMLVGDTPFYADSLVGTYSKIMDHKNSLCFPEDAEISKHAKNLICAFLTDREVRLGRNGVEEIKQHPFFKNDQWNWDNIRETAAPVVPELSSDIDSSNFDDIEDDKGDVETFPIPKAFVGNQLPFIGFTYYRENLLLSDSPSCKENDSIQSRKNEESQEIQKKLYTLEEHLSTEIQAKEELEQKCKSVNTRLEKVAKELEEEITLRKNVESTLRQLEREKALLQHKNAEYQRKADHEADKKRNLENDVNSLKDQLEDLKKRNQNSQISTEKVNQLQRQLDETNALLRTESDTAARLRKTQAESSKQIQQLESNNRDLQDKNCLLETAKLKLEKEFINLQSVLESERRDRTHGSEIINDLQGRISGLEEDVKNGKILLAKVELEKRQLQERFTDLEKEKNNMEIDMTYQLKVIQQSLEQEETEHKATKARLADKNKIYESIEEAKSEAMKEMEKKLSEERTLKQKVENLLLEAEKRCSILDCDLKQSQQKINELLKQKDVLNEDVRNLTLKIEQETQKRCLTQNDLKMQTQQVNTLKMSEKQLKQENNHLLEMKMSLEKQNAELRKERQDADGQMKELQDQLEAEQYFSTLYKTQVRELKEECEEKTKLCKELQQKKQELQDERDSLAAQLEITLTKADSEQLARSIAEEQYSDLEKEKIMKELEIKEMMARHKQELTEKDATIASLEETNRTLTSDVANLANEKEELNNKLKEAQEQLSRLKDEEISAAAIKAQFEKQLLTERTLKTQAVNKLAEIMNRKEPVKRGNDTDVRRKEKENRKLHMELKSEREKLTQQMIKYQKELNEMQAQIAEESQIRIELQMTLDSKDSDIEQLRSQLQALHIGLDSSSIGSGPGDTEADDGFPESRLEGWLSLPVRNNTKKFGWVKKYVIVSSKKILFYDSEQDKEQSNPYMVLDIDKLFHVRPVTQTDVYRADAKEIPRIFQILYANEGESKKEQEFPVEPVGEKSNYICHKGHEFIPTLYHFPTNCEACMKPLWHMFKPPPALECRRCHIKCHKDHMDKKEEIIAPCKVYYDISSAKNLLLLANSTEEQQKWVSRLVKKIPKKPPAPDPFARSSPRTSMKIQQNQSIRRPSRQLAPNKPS
The target in test [4] is T1, cAMP-dependent protein kinase catalytic subunit alpha. Briefly: Inhibition of PKA catalytic subunit alpha using 100 uM ATP and 30 uM TAMRA-kemptide substrate by fluorometric TLC assay.

What is called Kd is the constant that tells how readily two partners part at equilibrium. The low end stands for a tighter complex, the high end for a looser complex. A word on the IC50: it is the concentration at which inhibition is half-maximal.

The compound `NCCCC[C@@H](NC(=O)CCCCCNC(=O)[C@H]1O[C@@H](n2cnc3c(N)ncnc32)[C@H](O)[C@@H]1O)C(N)=O` returned a dissociation constant Kd in test [1] of 0.443 µM. With `NC(=O)[C@@H](CCCN=C(N)N)NC(=O)CCCCCNC(=O)[C@H]1O[C@@H](n2cnc3c(N)ncnc32)[C@H](O)[C@@H]1O`, the concentration for half-maximal inhibition (IC50) in test [2] was determined as 1.61 µM; in test [4], 2.1 µM. Further, the Kd was 0.249 µM in test [1] and 0.0897 µM in test [3]. As to `NCCCCNC(=O)CCCCCNC(=O)[C@H]1O[C@@H](n2cnc3c(N)ncnc32)[C@H](O)[C@@H]1O`, the dissociation constant Kd in test [1] amounted to 1.64 µM. Regarding `NC(=O)[C@H](Cc1ccc(C(=O)c2ccccc2)cc1)NC(=O)CCCCCNC(=O)[C@H]1O[C@@H](n2cnc3c(N)ncnc32)[C@H](O)[C@@H]1O`, the Kd in test [1] is > 100 µM. On the same count and under the same terms, as for `NCCNC(=O)CCCCCNC(=O)[C@H]1O[C@@H](n2cnc3c(N)ncnc32)[C@H](O)[C@@H]1O`, the figure is 8.23 µM. Take `NC(=O)[C@@H](CCCN=C(N)N)NC(=O)[C@@H](CCCN=C(N)N)NC(=O)CCCCCNC(=O)[C@H]1O[C@@H](n2cnc3c(N)ncnc32)[C@H](O)[C@@H]1O`: the IC50 in test [4] worked out at 2.6 µM. For `NCCCC[C@@H](NC(=O)CCCCCNC(=O)[C@H]1O[C@@H](n2cnc3c(N)ncnc32)[C@H](O)[C@@H]1O)C(=O)NCCCC(=O)N[C@H](CCCN=C(N)N)C(=O)N[C@H](CCCN=C(N)N)C(N)=O`, the affinity in test [1], expressed as Kd, was 0.0126 µM. Still for that read-out and setting: as for `NCCCC[C@@H](NC(=O)CCCCCNC(=O)[C@H]1O[C@@H](n2cnc3c(N)ncnc32)[C@H](O)[C@@H]1O)C(=O)NCCCCCC(=O)N[C@@H](CCCN=C(N)N)C(=O)N[C@@H](CCCN=C(N)N)C(N)=O`, the figure is 0.0087 µM; as for `NC(=O)CCCNC(=O)OC[C@H]1O[C@@H](n2cnc3c(N)ncnc32)[C@H](O)[C@@H]1O`, 98.7 µM; as for `N=C(N)NCCC[C@@H](NC(=O)[C@@H](CCCNC(=N)N)NC(=O)CCCNC(=O)CCCCCNC(=O)[C@H]1O[C@@H](n2cnc3c(N)ncnc32)[C@H](O)[C@@H]1O)C(N)=O`, 0.247 µM.

Compound `NC(=O)[C@@H](CCCN=C(N)N)NC(=O)[C@@H](CCCN=C(N)N)NC(=O)CCCCCCCNC(=O)CCCCCNC(=O)[C@H]1O[C@@H](n2cnc3c(N)ncnc32)[C@H](O)[C@@H]1O` displayed a dissociation constant Kd in test [1] of 0.0954 µM. On to `Nc1ncnc2c1ncn2[C@@H]1O[C@H](C(=O)NCCCCCC(=O)NCc2ccccc2)[C@@H](O)[C@H]1O`, for which binding in test [1] was put at a Kd of 13.5 µM. The same measure, in the same setting: as for `NCCCC[C@H](NC(=O)CCCCCNC(=O)[C@H]1O[C@@H](n2cnc3c(N)ncnc32)[C@H](O)[C@@H]1O)C(=O)NCCCCCC(=O)N[C@H](CCCN=C(N)N)C(=O)N[C@H](CCCN=C(N)N)C(N)=O`, the figure is 0.594 µM.

`Nc1ncnc2c1ncn2[C@@H]1O[C@H](C(=O)NCCCCCC(=O)O)[C@@H](O)[C@H]1O` registered an equilibrium dissociation constant (Kd) in test [1] of 55.8 µM. Consider `C[C@@H](NC(=O)CCCCCNC(=O)[C@@H]1C[C@@H](O)[C@H](n2cnc3c(N)ncnc32)C1)C(=O)NCCCCCC(=O)N[C@H](CCCNC(=N)N)C(=O)N[C@H](CCCNC(=N)N)C(N)=O`, for which the IC50 amounted to 2.04 µM in test [2] and 0.0211 µM in test [4]. The equilibrium dissociation constant (Kd) turned out to be 0.0018 µM in test [1] and 0.187 µM in test [3]. `NC(=O)CCCCCNC(=O)[C@H]1O[C@@H](n2cnc3c(N)ncnc32)[C@H](O)[C@@H]1O`: the IC50 in test [2] was > 1000 µM; in test [4] it was 26 µM. Besides, the results for the Kd in test [1] and in test [3] were 2.18 µM and 4.48 µM, respectively. Taken in the same sequence, the figures for `NCCCC[C@@H](NC(=O)CCCCCNC(=O)[C@H]1O[C@@H](n2cnc3c(N)ncnc32)[C@H](O)[C@@H]1O)C(=O)NCCCCCC(=O)N[C@H](CCCN=C(N)N)C(=O)N[C@H](CCCN=C(N)N)C(N)=O` were 0.774 µM, 0.054 µM, 0.0076 µM and 0.0014 µM.

Turning to `NCCCNC(=O)CCCCCNC(=O)[C@H]1O[C@@H](n2cnc3c(N)ncnc32)[C@H](O)[C@@H]1O`, the Kd in test [1] was determined as 6.05 µM. Still for that read-out and setting: as for `NC(=O)[C@@H](Cc1ccc(C(=O)c2ccccc2)cc1)NC(=O)CCCCCNC(=O)[C@H]1O[C@@H](n2cnc3c(N)ncnc32)[C@H](O)[C@@H]1O`, the figure is 1.96 µM; as for `Nc1ncnc2c1ncn2[C@@H]1O[C@H](C(=O)NCCCCCC(=O)NCCO)[C@@H](O)[C@H]1O`, 18.7 µM.

Turning to `NCCCC[C@@H](NC(=O)CCCCCNC(=O)[C@H]1O[C@@H](n2cnc3c(N)ncnc32)[C@H](O)[C@@H]1O)C(=O)NCCCCCC(=O)N[C@H](CCCN=C(N)N)C(=O)N[C@H](CCCN=C(N)N)C(=O)N[C@H](CCCN=C(N)N)C(=O)N[C@H](CCCN=C(N)N)C(N)=O`, the IC50 in test [2] was found to be 0.0566 µM; in test [4] it was 0.0134 µM. In addition, the Kd in test [1] was 0.0005 µM; in test [3], < 0.001 µM. Consider `C[C@@H](NC(=O)CCCCCNC(=O)[C@H]1O[C@@H](n2cnc3c(N)ncnc32)[C@H](O)[C@@H]1O)C(=O)NCCCCCC(=O)N[C@H](CCCN=C(N)N)C(=O)N[C@H](CCCN=C(N)N)C(N)=O`, for which the IC50 in test [2] turned out to be 3.75 µM; in test [4], 0.097 µM. Further, the figures for the equilibrium dissociation constant (Kd) in test [1] and in test [3] were 0.0058 µM and 0.119 µM, respectively. On to `NC(=O)CCCCCNC(=O)OC[C@H]1O[C@@H](n2cnc3c(N)ncnc32)[C@H](O)[C@@H]1O`, for which the Kd in test [1] was found to be 52.1 µM.

Take `N=C(N)NCCC[C@@H](NC(=O)[C@@H](CCCNC(=N)N)NC(=O)CCCCCCCNC(=O)[C@@H](CCCCN)NC(=O)CCCCCNC(=O)[C@H]1O[C@@H](n2cnc3c(N)ncnc32)[C@H](O)[C@@H]1O)C(N)=O`: the Kd in test [1] stood at 0.0095 µM.

The compound `NC(=O)[C@@H](CCCN=C(N)N)NC(=O)[C@@H](CCCN=C(N)N)NC(=O)CCCCCNC(=O)CCCCCNC(=O)[C@H]1O[C@@H](n2cnc3c(N)ncnc32)[C@H](O)[C@@H]1O` had a Kd in test [1] of 0.083 µM.

These data come from ChEMBL document CHEMBL1139385, “Structural analysis of ARC-type inhibitor (ARC-1034) binding to protein kinase A catalytic subunit and rational design of bisubstrate analogue inhibitors of basophilic protein kinases” (J Med Chem, 2009).
